The source of these data is US10736923B2, “Methods and compositions for generating chondrocyte lineage cells and/or cartilage like tissue” (UNIVERSITY HEALTH NETWORK, priority 2013, dated 2020).

Holding throughout (assay type): cell-based, human
One assay relates to hiPSCs. Description: Induction of primitive streak-like mesoderm from hiPSCs, flow cytometry. Particulars: hIPSCs induced with Activin A 3 ng/ml, BMP4 1 ng/ml, basic FGF 5 ng/ml and CHIR99061 1 micromolar, day 1 to day 3. An excerpt: FIG. 1. Serum-free differentiation of paraxial mesoderm, chondrocyte progenitors, and cartilage tissues from human pluripotent stem cells (hPSCs). […] On day 4 (T4), mesoderm populations are monitored by the expression of CD56 and PDGFRa on the cell surface by flow cytometry (B). Day 4 mesoderm cells are specified to a paraxial mesoderm fate in monolayer culture by treatment of Dorsomorphin, a BMP inhibitor, a TGFbeta inhibitor SB431542, and bFGF, from days 4 to 6 and bFGF from days 4 to 15 (stage 2). Day 15 paraxial mesoderm cells can generate chondrocyte progenitors by plating in a high density ‘spot’ termed micromass, or by plating onto collagen coated membrane filters (not shown) in the presence of TGFB3 for approximately 10 days (stage 3). Chondrocyte progenitors can be specified to articular chondrocytes or growth plate-like chondrocytes in a cartilage tissue format during stage 4 of differentiation by extended stimulation with TGFB3 (articular) or […] (growth plate-like) for example for 12 weeks. Tissues have been kept in culture for at least 7 months.
Background: In flow cytometry, cells or beads pass a laser one at a time.

The test system of another assay is fetal chondrocytes. Description: CD73 flow cytometry of fetal chondrocytes in micromass culture. Particulars: 9 to 10 weeks of micromass culture. An excerpt:
(§1) FIG. 6. CD73 is expressed by articular chondrocytes. Flow cytometric analyses of primary chondrocytes (A) Healthy adult articular chondrocytes and iliac crest GPC-like chondrocytes, (B) Primary fetal chondrocytes, primary (C) or passaged (passage (P)2, D) fetal chondrocytes after 9 to 10 weeks of micromass culture in the presence of TGFB3 or BMP4, and (E) hPSC-derived chondrocytes after 11 weeks derived in the presence of TGFB3 or BMP4. (F) Time course of CD73 and PDGFR-beta cells surface expression on T12 and T15 paraxial mesoderm populations, and micromass cultures treated with TGFB3 after 3 days, 10 days, and 2 weeks. (G) Time course of CD73 expression on TGFB3-treated micromasses after 3 days, 7 days, 10 days, and 2 to 5 weeks.
Primary (P0) and passaged (P2) fetal chondrocytes can also be cultured in micromass with TGFB3 or BMP4, similar to how hPSC-derived cartilage tissues are formed. TGFB3-treated fetal P0-derived or fetal P2-derived cartilage tissues contain over 93% CD73 positive cells, while BMP4 treatment reduces the percentage of CD73+ cells to 70% and 61% respectively (FIG. 6C,D). CD73 expression is also expressed by over 98% of hPSC-derived cartilage tissues derived with TGFB3-treatment (FIG. 6E). The percentage of CD73+ cells is reduced to only about 57% of cells after BMP4-treatment. Thus, CD73 marks primary healthy adult ACs, a proportion of healthy fetal chondrocytes, fetal chondrocytes or passaged fetal chondrocytes cultured as micromasses in TGFB3, and TGFB3-treated articular chondrocyte-like cells derived from human PSCs.

The subject of assay [1] is hPSC-derived chondrocytes. Description: CD73 flow cytometry of hPSC-derived cartilage tissues. Particulars: hPSC-derived cartilage tissues after 11 weeks.
Text: as §1
Primary (P0) and passaged (P2) fetal chondrocytes can also be cultured in micromass with TGFB3 or BMP4, similar to how hPSC-derived cartilage tissues are formed. TGFB3-treated fetal P0-derived or fetal P2-derived cartilage tissues contain over 93% CD73 positive cells, while BMP4 treatment reduces the percentage of CD73+ cells to 70% and 61% respectively (FIG. 6C,D). CD73 expression is also expressed by over 98% of hPSC-derived cartilage tissues derived with TGFB3-treatment (FIG. 6E). The percentage of CD73+ cells is reduced to only about 57% of cells after BMP4-treatment. […]

Assay [2] concerns hPSC-derived paraxial mesoderm. Description: Chondrocyte specification in micromass culture with TGFB3 or BMP4 (histology, scatter flow cytometry, qRT-PCR, immunostaining). Particulars: for forward and side scatter of live cells (cell size, granularity): 3 week and 5 week micromasses; for chondrocyte morphology: 5 week old micromasses; for Lubricin protein (immunohistochemistry): 12 week micromass tissue; for tissue histology (toluidine blue), chondrocyte size: 13 week old tissues, GDF5 instead of BMP4; for COL2A1 expression / SOX9 expression: qRT-PCR, by 2 weeks of culture. The text has this: FIG. 4. TGFB3 and BMP4 specify chondrocytes and cartilage-like tissues with articular cartilage and growth plate cartilage phenotypes. (A) Micrographs of 5 week old micromasses derived with TGFB3 or BMP4, 20× magnification. (B) Tissue histology (stained with toluidine blue) of 13 week cartilage tissues derived with TGFB3 or BMP4. […] (C) Flow cytometric analysis of forward and side cell scatter parameters of 3 week and 5 week old micromasses. Side scatter indicates cell granularity and forward cell scatter indicates cell size. (D) Comparison of hPSC-derived micromass tissues to fetal primary chondrocyte derived micromass tissues and the developing human fetal femur cartilage. Articular cartilage regions appear to have smaller cells in size compared to growth plate like regions, which contain cells which appear enlarged (hypertrophic). Cartilage tissues in micromass as well as in the fetal femur stain uniformly with the toluidine blue stain (images are pink/purple in color and indicate the presence of cartilage proteins). The BMP4-treated micromass tissues contain a large number of enlarged cells which is similar to the bottom panel of the fetal cartilage which represents a growth plate cartilage. TGFB3 treated micromass cultures contain fewer, if any, enlarged chondrocytes, and appear similar to the upper panel of the fetal cartilage which is the site of articular cartilage. (E) Micrograph using GDF5 instead of BMP4 to generate hypertrophic chondrocytes. (F) Histological analyses of cartilage tissues derived from hiPSCs stained with Toluidine blue after 12 weeks. (G,H) Immunohistochemical staining of hESC-derived cartilage tissues for type II Collagen (G, 8 week tissues), and lubricin (H, 12 week tissues).
FIG. 5. Gene expression analyses of chondrocyte specification in the presence of TGFB3 or BMP4 during stages 3 and 4 of differentiation respectively. General chondrocyte genes Sox9 (A) and collagen 2 (B), hypertrophic genes collagen 10 (C), Runx2 (D), osterix (E) and alkaline phosphatase (F), articular cartilage associated genes lubricin (G) and cartilage intermediate layer protein 2 (CILP2) (H), interzone-related (joint progenitor) genes GDF5 (I), ERG (J) and Wnt9a (K). Expression is copy number relative to TBP (n=3 to 8 biological replicates) and is compared to primary fetal chondrocytes (aged 16 to 19 weeks, n=4), primary healthy adult articular chondrocytes (n=2), and growth plate-like chondrocytes isolated from the iliac crest of an adult (n=1). T15 Mesoderm indicates day 15 hESC-derived paraxial mesoderm (DM+FGF-treated). Error bars indicate s.e.m.
FIG. 8. TGFβ1, TGFβ2, and TGFβ3 generated articular chondrocytes from hPSC-derived paraxial mesoderm. COL2A1, lubricin, and CILP2 gene expression after 12 weeks of micromass culture in the presence of TGF agonists as indicated (10 ng/ml). Values represent copy number mRNA relative to TBP. Error bars indicate s.e.m.
Previous studies have shown that TGFBeta/BMP signaling is required to generate chondrocyte progenitors from paraxial mesoderm. […] Following 10 days of TGFb3 treatment (day 25 total), cultures could be switched to media containing BMP4 or maintained in TGFb3 (stage 4) in order to specify subsets of chondrocytes (articular/non-hypertrophic or growth plate/hypertrophic). To determine the chondrocyte potential of the day 15 mesoderm populations, the cells were plated at high cell density in a 20 microliter volume on tissue culture treated Petri dishes for an hour (micromass) and then the ‘spot’ was submerged/covered with media. In our initial studies, the cells were ‘spotted’ in a media containing 2% fetal bovine serum. However, this short serum exposure can be omitted with no effects on cartilage formation at later stages, making this protocol optionally serum-free. After 2 to 3 days, serum-free media containing TGFb3 is added to the culture to generate chondrocyte progenitors. […]

The mark [3] stands for this setting: passaged (P2) fetal chondrocytes.
[4] abbreviates: primary (P0) fetal chondrocytes.
Where [5] appears, read: 8- to 12-week old tissue, versus tissue maintained in TGFb3.

As for `Cc1cnc(-c2cnc(NCCNc3ccc(C#N)cn3)nc2-c2ccc(Cl)cc2Cl)[nH]1` [CHIR99061], the “expression of cell surface markers CD56, PDGFRalpha and KDR” value with hiPSCs was “also expresses CD56, PDGFRalpha and KDR”.
In the assay with fetal chondrocytes (setting [3]), BMP4: Bone Morphogenetic Protein 4 had a CD73 positive cells of 61%. This molecule also yielded a CD73 positive cells in the assay on fetal chondrocytes (setting [4]) of 70%. Besides, the CD73 positive cells result in assay [1] is reported as “about 57%”. Also, in assay [2], the “forward and side scatter of live cells (cell size, granularity)” value is “larger forward scatter (FSC)”; the chondrocyte morphology entry was “round with cobblestone-like appearance”; the “Lubricin protein (immunohistochemistry)” value is on record as “not”; the “tissue histology (toluidine blue), chondrocyte size” value is “enlarged hypertrophic chondrocytes”. In assay [2], the COL2A1 expression entry is “upregulated” and the SOX9 expression entry is “upregulated”. Besides, in assay [2] (setting [5]), the COL10A1 expression entry is on record as “significantly higher”, the RUNX2 expression result was “significantly higher”, the SP7 expression result is recorded as “significantly higher” and the “alkaline phosphatase (ALP/ALPL) expression” value was “significantly higher”. In addition, in assay [2] (direct plating into BMP4 containing media, no TGFB3 stimulation), the “cartilage tissue formation on direct plating of day 15 mesoderm” value is “non-adherent cell aggregates that did not form cartilage tissue”.

B1: TGFB3: TGFbeta agonist (protein, UniProt P10600 301-412, looked up)
Transforming growth factor …: ALDTNYCFRNLEENCCVRPLYIDFRQDLGWKWVHEPKGYYANFCSGPCPYLRSADTTHSTVLGLYNTLNPEASASPCCVPQDLEPLTILYYVGRTPKVEQLSNMVVKSCKCS
Consider B1, for which, in the assay with fetal chondrocytes (setting [3]), the CD73 positive cells entry is “over 93%”. In the assay on fetal chondrocytes (setting [4]), the CD73 positive cells entry was “over 93%”. In assay [1], the CD73 positive cells result is on record as “over 98%”. In addition, in assay [2], the “forward and side scatter of live cells (cell size, granularity)” value was “tight population of smaller, less granular cells”; the chondrocyte morphology entry is reported as “small fibroblastic-like phenotype”; the “Lubricin protein (immunohistochemistry)” value is “present”; the “tissue histology (toluidine blue), chondrocyte size” value is on record as “small cells (chondrocytes) dispersed evenly throughout the tissue”. In assay [2], the COL2A1 expression entry is “upregulated” and the SOX9 expression result is reported as “upregulated”. Further, the “expression of mature AC genes, such as lubricin and CILP2” value in assay [2] (extended period of time (up to 12 weeks)) is listed as “allows for the expression of mature AC genes”.
